What was measured:
P388 [1] = test: In vitro rate of inhibition of P388 tumor cell growth at 10E-4 mol/L; format: functional, Mus musculus; conditions: at 100 µM
A549 [2] = test: In vitro rate of inhibition of A-549 tumor cell growth at 10E-4 mol/L; format: functional, Homo sapiens; conditions: at 100 µM
P388 [3] = test: In vitro rate of inhibition of P388 tumor cell growth at 10E-7 mol/L; format: functional, Mus musculus; conditions: at 0.1 µM
A549 [4] = test: In vitro rate of inhibition of A-549 tumor cell growth at 10E-7 mol/L; format: functional, Homo sapiens; conditions: at 0.1 µM
P388 [5] = test: In vitro rate of inhibition of P388 tumor cell growth at 10E-6 mol/L; format: functional, Mus musculus; conditions: at 1 µM
P388 [6] = test: In vitro rate of inhibition of P388 tumor cell growth at 10E-5 mol/L; format: functional, Mus musculus; conditions: at 10 µM
A549 [7] = test: In vitro rate of inhibition of A-549 tumor cell growth at 10E-8 mol/L; format: functional, Homo sapiens; conditions: at 0.01 µM
A549 [8] = test: In vitro rate of inhibition of A-549 tumor cell growth at 10E-5 mol/L; format: functional, Homo sapiens; conditions: at 10 µM
P388 [9] = test: In vitro rate of inhibition of P388 tumor cell growth at 10E-8 mol/L; format: functional, Mus musculus; conditions: at 0.01 µM
A549 [10] = test: In vitro rate of inhibition of A-549 tumor cell growth at 10E-6 mol/L; format: functional, Homo sapiens; conditions: at 1 µM

In the case of `COc1cc(NC(=O)N2N=C(C)N(C(=O)Nc3cc(OC)cc(OC)c3)N=C2C)cc(OC)c1`, the Rate of inhibition (P388 [1]) is reported as 94.4%, the Rate of inhibition (A549 [2]) is reported as 87.5% and the Rate of inhibition (P388 [3]) is reported as 90.7%. For the same compound, the Rate of inhibition (A549 [4]) was 75%, the Rate of inhibition (P388 [5]) was 88.9% and the Rate of inhibition (P388 [6]) was 88.8%. For the same compound, the Rate of inhibition (A549 [7]) was 26.1%, the Rate of inhibition (A549 [8]) was 79.3% and the Rate of inhibition (P388 [9]) was 73.1%. The Rate of inhibition (A549 [10]) was 77.3%.

In the case of `CCOC(=O)N1C(c2ccccc2)=NN=C(c2ccccc2)N1C(=O)OCC`, the Rate of inhibition (P388 [1]) is reported as 93.9%, the Rate of inhibition (A549 [2]) is reported as 95.3% and the Rate of inhibition (P388 [3]) is reported as 4.9%. It also gave a Rate of inhibition (A549 [4]) of 0%, a Rate of inhibition (P388 [5]) of 7% and a Rate of inhibition (P388 [6]) of 35.6%. For the same compound, the Rate of inhibition (A549 [7]) was 0%, the Rate of inhibition (A549 [8]) was 10.8% and the Rate of inhibition (P388 [9]) was 2.8%. It also gave a Rate of inhibition (A549 [10]) of 0%.

For `CCOC(=O)c1ccc(NC(=O)N2N=C(C)N(C(=O)Nc3ccc(C(=O)OCC)cc3)N=C2C)cc1`, the Rate of inhibition (P388 [1]) was 63.5%, the Rate of inhibition (A549 [2]) was 27.3% and the Rate of inhibition (P388 [3]) was 0%. It also gave a Rate of inhibition (A549 [4]) of 0%, a Rate of inhibition (P388 [5]) of 1.6% and a Rate of inhibition (P388 [6]) of 25.4%. The Rate of inhibition (A549 [7]) was 0%, the Rate of inhibition (A549 [8]) was 28.8% and the Rate of inhibition (P388 [9]) was 0%. For the same compound, the Rate of inhibition (A549 [10]) was 0%.

In the case of `COc1cccc(NC(=O)N2N=C(C)N(C(=O)Nc3cccc(OC)c3)N=C2C)c1`, the Rate of inhibition (P388 [1]) is reported as 95.3%, the Rate of inhibition (A549 [2]) is reported as 87.7% and the Rate of inhibition (P388 [3]) is reported as 95.2%. The Rate of inhibition (A549 [4]) was 89.2%, the Rate of inhibition (P388 [5]) was 93.8% and the Rate of inhibition (P388 [6]) was 93.8%. For the same compound, the Rate of inhibition (A549 [7]) was 86.2%, the Rate of inhibition (A549 [8]) was 86.2% and the Rate of inhibition (P388 [9]) was 92.2%. For the same compound, the Rate of inhibition (A549 [10]) was 84.6%.

`CCCCCOC(=O)N1N=C(CCC)N=NC1CCC` (stereo not given) was tested, and the Rate of inhibition (P388 [1]) was 32.8%, the Rate of inhibition (A549 [2]) was 0% and the Rate of inhibition (P388 [3]) was 0%. For the same compound, the Rate of inhibition (A549 [4]) was 0%, the Rate of inhibition (P388 [5]) was 5.6% and the Rate of inhibition (P388 [6]) was 7.7%. For the same compound, the Rate of inhibition (A549 [7]) was 2.5%, the Rate of inhibition (A549 [8]) was 0.7% and the Rate of inhibition (P388 [9]) was 0%. The Rate of inhibition (A549 [10]) was 2.3%.

Work on `CCCC1NN(C(C)=O)C(CCC)NN1C(C)=O` (stereo not given) yielded a Rate of inhibition (P388 [1]) of 38.5%, a Rate of inhibition (A549 [2]) of 59.8% and a Rate of inhibition (P388 [3]) of 3.1%. The Rate of inhibition (A549 [4]) was 1.2%, the Rate of inhibition (P388 [5]) was 3.2% and the Rate of inhibition (P388 [6]) was 5.5%. For the same compound, the Rate of inhibition (A549 [7]) was 0%, the Rate of inhibition (A549 [8]) was 8.6% and the Rate of inhibition (P388 [9]) was 0%. For the same compound, the Rate of inhibition (A549 [10]) was 4%.

`CC1=NN(C(=O)Nc2ccccc2Cl)C(C)=NN1C(=O)Nc1ccccc1Cl` showed a Rate of inhibition (P388 [1]) of 90.5%, a Rate of inhibition (A549 [2]) of 28.8% and a Rate of inhibition (P388 [3]) of 0%. For the same compound, the Rate of inhibition (A549 [4]) was 0%, the Rate of inhibition (P388 [5]) was 1.6% and the Rate of inhibition (P388 [6]) was 41.3%. The Rate of inhibition (A549 [7]) was 0%, the Rate of inhibition (A549 [8]) was 0% and the Rate of inhibition (P388 [9]) was 0%. It also gave a Rate of inhibition (A549 [10]) of 0%.

`CC(=O)N1N=C(c2ccccc2)NN=C1c1ccccc1` was tested, and the Rate of inhibition (P388 [1]) was 62.7%, the Rate of inhibition (A549 [2]) was 85.1% and the Rate of inhibition (P388 [3]) was 5.5%. The Rate of inhibition (A549 [4]) was 0%, the Rate of inhibition (P388 [5]) was 6.6% and the Rate of inhibition (P388 [6]) was 10.9%. For the same compound, the Rate of inhibition (A549 [7]) was 0%, the Rate of inhibition (A549 [8]) was 0% and the Rate of inhibition (P388 [9]) was 9.2%. The Rate of inhibition (A549 [10]) was 0%.

Work on `CC1=NN(C(=O)Oc2ccccc2)C(C)N=N1` (stereo not given) yielded a Rate of inhibition (P388 [1]) of 85.3%, a Rate of inhibition (A549 [2]) of 32.1% and a Rate of inhibition (P388 [3]) of 1.2%. For the same compound, the Rate of inhibition (A549 [4]) was 0%, the Rate of inhibition (P388 [5]) was 13.6% and the Rate of inhibition (P388 [6]) was 27.9%. The Rate of inhibition (A549 [7]) was 0%, the Rate of inhibition (A549 [8]) was 0% and the Rate of inhibition (P388 [9]) was 0%. The Rate of inhibition (A549 [10]) was 0%.

Compound `CCC1=NN(C(=O)Nc2cccc(C)c2)C(CC)=NN1C(=O)Nc1cccc(C)c1` has a Rate of inhibition (P388 [1]) of 91.6%, a Rate of inhibition (A549 [2]) of 90.4% and a Rate of inhibition (P388 [3]) of 0%. It also gave a Rate of inhibition (A549 [4]) of 16.7%, a Rate of inhibition (P388 [5]) of 0% and a Rate of inhibition (P388 [6]) of 63.5%. It also gave a Rate of inhibition (A549 [7]) of 1.6%, a Rate of inhibition (A549 [8]) of 84.1% and a Rate of inhibition (P388 [9]) of 0%. For the same compound, the Rate of inhibition (A549 [10]) was 81.1%.

From ChEMBL document CHEMBL1147590, “Synthesis and antitumor activity of s-tetrazine derivatives” (Bioorg Med Chem Lett, 2004)
